Test results taken from PMC6688628, “N-Substituted Pyrrole Derivative 12m Inhibits HIV-1 Entry by Targeting Gp41 of HIV-1 Envelope Glycoprotein” (Frontiers in Pharmacology, 2019).
Like-named read-outs stand apart in the source and are kept apart here.

Columns and labels:
HIV-1 92UG029 = assay: Anti-HIV-1 activity, primary strain 92UG029; type: cell-based; details: luciferase readout, mean ± SD
HIV-1 NL4-3D36G = type: cell-based; details: T20-sensitive parent strain, p24 ELISA, mean ± SD
[1] = tested on: HIV-1 NL4-3(36G)V38E,N42S; details: T20-resistant NL4-3(36G)V38E,N42S; p24 ELISA; mean ± SD
[2] = tested on: HIV-1 NL4-3(36G)V38A,N42D; details: T20-resistant NL4-3(36G)V38A,N42D; p24 ELISA; mean ± SD
[3] = tested on: HIV-1 NL4-3(36G)V38A,N42T; details: T20-resistant NL4-3(36G)V38A,N42T; p24 ELISA; mean ± SD
HIV-1 NL4-3(36G)V38A = details: T20-resistant NL4-3(36G)V38A; p24 ELISA; mean ± SD
[4] = tested on: HIV-1 NL4-3(36G)N42T,N43K; details: T20-resistant NL4-3(36G)N42T,N43K; p24 ELISA; mean ± SD
HIV-1 BCF02 = assay: microbe, parasite or virus in culture; type: cell-based
Procedure: (§1) The HIV-1 replication-inhibiting activity of compounds was determined as previously described ([Li et al., 2013]). Briefly, 1 × 10^4 TZM-bl or MT-2 cells were infected with primary HIV-1 strains or T20-resistant HIV-1 strains (100 TCID50) in 200 µl of RPMI-1640 medium containing 10% FBS in the presence or absence of compounds at graded concentrations for 12 h. The culture medium was replaced with fresh medium without the compounds. After culture for an additional 48 h, supernatants or cells were collected from each well. For the primary HIV-1 strains, the cells were treated using a luciferase kit. Briefly, the cells were lysed with the lysis reagent and were transferred into a 96-well flat-bottom luminometer plate after three washes with phosphate-buffered saline (PBS) (Costar Corning Inc., Corning, NY), followed by addition of the luciferase substrate included in the luciferase kit (Promega Corp., Madison, WI). The luciferase activity was measured immediately by an Ultra 384 microplate reader (Tecan, Research Triangle Park, NC). T20 was used as a positive control. For the T20-resistant HIV-1 strains, 100 µl of culture supernatant was mixed with 100 µl of 5% Triton X-100. Then, those virus lysates were assayed for p24 antigen by enzyme linked immunosorbent assay (ELISA) as previously described ([Li et al., 2010]). Absorbance at 450 nm was recorded in an ELISA reader (Ultra 384, Tecan). EC50 values were calculated using the computer program CalcuSyn ([Chou and Talalay, 1984]).

HIV-1 93/BR/020 = assay: microbe, parasite or virus in culture; type: cell-based
Procedure: as §1

HIV-1 US4 (GS 007) = assay: microbe, parasite or virus in culture; type: cell-based
Procedure: as §1

[5] = tested on: HIV-1JR-FL Env mutant K574A pseudovirus; type: cell-based; details: compared with wild-type HIV-1JR-FL pseudovirus
[6] = tested on: R5 and X4 HIV-1 strains (Env pseudotyped viruses); type: cell-based
HIV-1 = tested on: HIV-1; parameters: method as in Jiang et al., 2004; details: inhibition of HIV-1 entry; ref Jiang et al., 2004; cited from earlier work

Compound	IC50 [1]	IC90 [1]	IC50 [2]	IC90 [2]	IC50 [3]	IC90 [3]	IC50 (HIV-1 NL4-3(36G)V38A)	IC90 (HIV-1 NL4-3(36G)V38A)	IC50 [4]	IC90 [4]	further results
COc1ccc(S(=O)(=O)[O-])cc1N=Nc1c(S(=O)(=O)[O-])cc2cc(Nc3nc(Nc4ccccc4)nc(Nc4cc(C)c(N=Nc5cc(S(=O)(=O)[O-])cc6cc(S(=O)(=O)[O-])cc(O)c56)cc4OC)n3)ccc2c1O.[Na+].[Na+].[Na+].[Na+] [ADS-J1]	110 ± 10 nM	330 ± 10 nM	650 ± 180 nM	8200 ± 2650 nM	620 ± 160 nM	8390 ± 1550 nM	160 ± 40 nM	400 ± 50 nM	610 ± 250 nM	4240 ± 1210 nM	IC50 (HIV-1 92UG029): 20600 ± 5290 nM; IC90 (HIV-1 92UG029): 32200 ± 6710 nM; IC50 (HIV-1 NL4-3D36G): 940 ± 30 nM; IC90 (HIV-1 NL4-3D36G): 2030 ± 200 nM; IC50 (HIV-1 BCF02; primary strain BCF02, luciferase readout, mean ± SD, read-out: IC50): 1450 ± 260 nM; IC90 (HIV-1 BCF02; primary strain BCF02, luciferase readout, mean ± SD, read-out: IC90): 3060 ± 420 nM; IC50 (HIV-1 93/BR/020; primary strain 93/BR/020, luciferase readout, mean ± SD): 13000 ± 3490 nM; IC90 (HIV-1 93/BR/020; primary strain 93/BR/020, luciferase readout, mean ± SD, read-out: IC90): 27000 ± 4300 nM; IC50 (HIV-1 US4 (GS 007); primary strain US4 (GS 007), luciferase readout, mean ± SD, read-out: IC50): 4620 ± 760 nM; IC90 (HIV-1 US4 (GS 007); primary strain US4 (GS 007), luciferase readout, mean ± SD, read-out: IC90): 9900 ± 1440 nM; inhibitory activity against K574A mutant pseudovirus [5]: exerted inhibitory activity
c1cc(CN2CCCNCCNCCCNCC2)ccc1CN1CCCNCCNCCCNCC1 [AMD3100]	–	–	–	–	–	–	–	–	–	–	inhibitory activity against the R5 and X4 HIV-1 strains [6]: strong inhibitory activity
O=C(O)c1cc(-n2cccc2)ccc1Cl [NB-64]	–	–	–	–	–	–	–	–	–	–	effective concentration for 50% inhibition (EC50) (HIV-1): on the µM level
Enfuvirtide	> 2000 nM	> 2000 nM	895 ± 310 nM	> 2000 nM	> 2000 nM	> 2000 nM	279 ± 82 nM	> 2000 nM	> 2000 nM	> 2000 nM	inhibitory activity against the R5 and X4 HIV-1 strains ([6]; positive controls, single-cycle pseudovirus infection): strong inhibitory activity; IC50 (HIV-1 BCF02; BCF02, 12 h): 50 ± 22 nM; IC90 (HIV-1 BCF02; BCF02, 12 h): 502 ± 338 nM; IC90 (HIV-1 93/BR/020; 93/BR/020, 12 h): 313 ± 22 nM; IC50 (HIV-1 US4 (GS 007); US4 (GS 007, 12 h)): 59 ± 10 nM; IC90 (HIV-1 US4 (GS 007); US4 (GS 007, 12 h)): 1430 ± 443 nM
